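Protocol summary: plate cells (96-well), add compound at 5 concentrations, incubate 48 h, interpolate endpoints linearly. Definition used: TGI = concentration required for complete inhibition of growth.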
Experiments:
Assay in all cases: NCI anticancer screen, dose series, 48 h
[1] = tested on: SNB-19 CNS
[2] = tested on: COLO 205 colon
[3] = tested on: HOP-62 NSCLC
[4] = tested on: HCT-116 colon
[5] = tested on: HCC-2998 colon
[6] = tested on: 786-0 renal
[7] = tested on: LOX IMVI melanoma
[8] = tested on: T-47D breast
[9] = tested on: HOP-92 NSCLC
[10] = tested on: BT-549 breast
[11] = tested on: A549 NSCLC
[12] = tested on: SK-MEL-5 melanoma
[13] = tested on: SK-OV-3 ovarian
[14] = tested on: OVCAR-3 ovarian
[15] = tested on: PC-3 prostate
[16] = tested on: RXF 393 renal
[17] = tested on: SF-295 CNS
[18] = tested on: MCF7 breast
[19] = tested on: SR leukemia
[20] = tested on: SNB-75 CNS
[21] = tested on: OVCAR-4 ovarian
[22] = tested on: UACC-257 melanoma
[23] = tested on: TK-10 renal
[24] = tested on: EKVX NSCLC
[25] = tested on: ACHN renal
[26] = tested on: NCI-H226 lung
[27] = tested on: OVCAR-5 ovarian
[28] = tested on: SK-MEL-2 melanoma
[29] = tested on: M14 melanoma
[30] = tested on: SW-620 colon
[31] = tested on: UO-31 renal
[32] = tested on: OVCAR-8 ovarian
[33] = tested on: UACC-62 melanoma
[34] = tested on: CCRF-CEM leukemia
[35] = tested on: K-562 leukemia
[36] = tested on: KM12 colon
[37] = tested on: MDA-MB-435
[38] = tested on: U251 CNS
[39] = tested on: HCT-15 colon
[40] = tested on: IGROV1 ovarian
[41] = tested on: NCI/ADR-RES ovarian
[42] = tested on: A498 renal
[43] = tested on: HL-60(TB) leukemia
[44] = tested on: SK-MEL-28 melanoma
[45] = tested on: DU-145 prostate
[46] = tested on: NCI-H23 lung
[47] = tested on: RPMI-8226 leukemia
[48] = tested on: NCI-H460 lung

Measured: TGI

Oc1c2cc(Cl)cc1COCc1cc(Cl)cc(c1O)COCc1cc(Cl)cc(c1O)COC2
37.7 µM: [6]
92.2 µM: [9]
32.9 µM: [32]
64.7 µM: [29]
63.4 µM: [20]
98.6 µM: [46]
8.43 µM: [43]
59.5 µM: [34]
> 100 µM: all other assays above

— PubChem BioAssay (NCI)
